Source: ChEMBL document CHEMBL1201862, “PubChem BioAssay data set” (2004)
The source made the active and inactive calls.

Key:
[1] = target: Melanin-concentrating hormone receptor 1 (Homo sapiens, UniProt Q99705); experiment: Fluorescence-based counterscreen for antagonists of the G-protein coupled receptor 7 (GPR7): cell-based high throughput dose response assay to identify antagonists of the melanin-concentrating hormone receptor 1 (MCHR1).; type: functional
[2] = target: Neuropeptides B/W receptor type 1 (Homo sapiens, UniProt P48145); experiment: Fluorescence-based dose response cell-based high throughput screening assay to identify antagonists of the G-protein coupled receptor 7 (GPR7). [Related pubchem assays: 1952 (Screening assay (GPR7 antagonists).), 1880 (Summary AID.)]; type: functional
Sequence of Neuropeptides B/W receptor type 1 (P48145 whole entry): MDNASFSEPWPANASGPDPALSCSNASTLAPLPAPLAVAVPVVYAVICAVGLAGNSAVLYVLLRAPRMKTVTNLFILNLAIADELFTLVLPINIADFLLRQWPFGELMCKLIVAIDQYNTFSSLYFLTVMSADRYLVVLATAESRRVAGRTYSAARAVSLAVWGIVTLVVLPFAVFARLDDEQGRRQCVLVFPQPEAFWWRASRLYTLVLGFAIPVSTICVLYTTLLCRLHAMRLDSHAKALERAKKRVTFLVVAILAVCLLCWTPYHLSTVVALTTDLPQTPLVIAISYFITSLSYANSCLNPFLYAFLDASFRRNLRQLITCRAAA

[3] = cells
[4] = microbe, parasite or virus in culture; type: functional; conditions: Mycobacterium tuberculosis
[5] = viability of uninfected HEp-2 cells – cell-based, HTS, cytotoxicity control for RSV inhibitor project, dose response (AID 2410); type: functional; conditions: human respiratory syncytial virus
[6] = target: T1, Aspartyl aminopeptidase (Plasmodium falciparum 3D7, UniProt Q8I2J3)
T1 sequence (Q8I2J3 whole entry): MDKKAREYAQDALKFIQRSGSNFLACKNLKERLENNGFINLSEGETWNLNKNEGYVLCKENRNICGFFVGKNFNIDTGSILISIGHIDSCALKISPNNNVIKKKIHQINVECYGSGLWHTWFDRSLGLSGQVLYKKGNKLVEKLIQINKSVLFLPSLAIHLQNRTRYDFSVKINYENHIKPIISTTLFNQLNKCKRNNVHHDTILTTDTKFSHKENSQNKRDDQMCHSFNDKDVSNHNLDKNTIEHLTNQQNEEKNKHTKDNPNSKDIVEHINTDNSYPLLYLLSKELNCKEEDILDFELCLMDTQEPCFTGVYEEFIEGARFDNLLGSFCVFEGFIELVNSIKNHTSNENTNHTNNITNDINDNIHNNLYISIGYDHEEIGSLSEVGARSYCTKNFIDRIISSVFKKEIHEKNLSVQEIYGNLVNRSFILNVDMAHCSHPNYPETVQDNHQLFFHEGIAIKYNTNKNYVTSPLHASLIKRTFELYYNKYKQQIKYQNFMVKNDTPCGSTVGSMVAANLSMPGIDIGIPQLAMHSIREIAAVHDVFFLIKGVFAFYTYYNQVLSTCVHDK

[7] = target: Procathepsin L (Homo sapiens, UniProt P07711)
Sequence of Procathepsin L (P07711 whole entry): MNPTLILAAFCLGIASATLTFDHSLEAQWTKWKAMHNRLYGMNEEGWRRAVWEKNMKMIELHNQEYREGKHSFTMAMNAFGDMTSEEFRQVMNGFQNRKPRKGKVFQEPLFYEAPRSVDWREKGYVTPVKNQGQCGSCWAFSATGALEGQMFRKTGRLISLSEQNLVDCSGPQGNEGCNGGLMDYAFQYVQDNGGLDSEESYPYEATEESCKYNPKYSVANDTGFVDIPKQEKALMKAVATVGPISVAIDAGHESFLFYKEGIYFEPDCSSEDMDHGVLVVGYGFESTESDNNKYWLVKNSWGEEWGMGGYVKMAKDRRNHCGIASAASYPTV

[8] = tested on: HEK293; experiment: Fluorescence-based counterscreen for potentiators or agonists of NPY-Y2: cell-based high-throughput dose response assay to identify inhibitors of cyclic nucleotide gated ion channel (CNGC) activity. In this assay, the parental HEK293 cell line transfected with a cyclic-nucleotide gated ion channel (CNGC)-based cAMP sensor is used to measure inhibition of isoproterenol-induced CNGC activity by test compound.; type: functional; conditions: Homo sapiens;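 also: stimulus is 1 µM isoproterenol at EC100 plus PDE inhibitor Ro 20-1724 at 25 µM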
[9] = target: Neuropeptide Y receptor type 2 (Homo sapiens, UniProt P49146); experiment: Fluorescence-based cell-based high-throughput dose response assay for agonists of NPY-Y2. [Related pubchem assays: 1703 (Screening assay (CNGC inhibitors).), 1359 (Screening assay (NPY-Y2 potentiators or agonists).), 1304 (Screening assay (NPY-Y1 potentiators or agonists).), 1710 (Screening assay (NPY-Y2 agonists).), 1791 (Summary AID.)]; type: functional
Sequence of Neuropeptide Y receptor type 2 (P49146 whole entry): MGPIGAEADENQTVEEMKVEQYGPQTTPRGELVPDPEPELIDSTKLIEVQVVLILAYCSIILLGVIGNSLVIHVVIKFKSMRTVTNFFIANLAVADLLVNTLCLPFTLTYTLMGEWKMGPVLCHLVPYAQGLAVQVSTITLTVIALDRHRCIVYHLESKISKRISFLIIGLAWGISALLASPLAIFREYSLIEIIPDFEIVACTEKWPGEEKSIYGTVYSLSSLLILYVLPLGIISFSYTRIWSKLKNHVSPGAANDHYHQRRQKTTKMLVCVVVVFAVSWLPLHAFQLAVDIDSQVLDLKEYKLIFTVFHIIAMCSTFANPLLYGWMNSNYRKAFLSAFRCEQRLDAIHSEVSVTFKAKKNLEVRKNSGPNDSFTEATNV

[10] = target: Neuropeptide Y receptor type 1 (Homo sapiens, UniProt P25929); experiment: Fluorescence-based counterscreen for agonists of NPY-Y2: cell-based high-throughput dose response assay for agonists of NPY-Y1.; type: functional
Sequence of Neuropeptide Y receptor type 1 (P25929 whole entry): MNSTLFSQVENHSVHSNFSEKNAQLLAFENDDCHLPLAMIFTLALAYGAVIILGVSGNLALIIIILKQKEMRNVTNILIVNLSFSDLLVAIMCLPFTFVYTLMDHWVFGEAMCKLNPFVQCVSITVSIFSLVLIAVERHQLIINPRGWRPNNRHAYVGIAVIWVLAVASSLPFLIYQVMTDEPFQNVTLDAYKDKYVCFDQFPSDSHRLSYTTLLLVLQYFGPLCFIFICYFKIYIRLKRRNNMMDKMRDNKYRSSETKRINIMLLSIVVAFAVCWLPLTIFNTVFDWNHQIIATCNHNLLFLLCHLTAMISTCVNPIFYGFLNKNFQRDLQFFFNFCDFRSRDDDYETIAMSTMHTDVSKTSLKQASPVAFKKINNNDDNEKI

[11] = target: Lysosomal acid glucosylceramidase (Homo sapiens, UniProt P04062); experiment: Dose response cell-based high throughput screening assay to identify enhancers of beta-glucosidase activity. [Related pubchem assays: 784 ]; type: functional
Sequence of Lysosomal acid glucosylceramidase (P04062 whole entry): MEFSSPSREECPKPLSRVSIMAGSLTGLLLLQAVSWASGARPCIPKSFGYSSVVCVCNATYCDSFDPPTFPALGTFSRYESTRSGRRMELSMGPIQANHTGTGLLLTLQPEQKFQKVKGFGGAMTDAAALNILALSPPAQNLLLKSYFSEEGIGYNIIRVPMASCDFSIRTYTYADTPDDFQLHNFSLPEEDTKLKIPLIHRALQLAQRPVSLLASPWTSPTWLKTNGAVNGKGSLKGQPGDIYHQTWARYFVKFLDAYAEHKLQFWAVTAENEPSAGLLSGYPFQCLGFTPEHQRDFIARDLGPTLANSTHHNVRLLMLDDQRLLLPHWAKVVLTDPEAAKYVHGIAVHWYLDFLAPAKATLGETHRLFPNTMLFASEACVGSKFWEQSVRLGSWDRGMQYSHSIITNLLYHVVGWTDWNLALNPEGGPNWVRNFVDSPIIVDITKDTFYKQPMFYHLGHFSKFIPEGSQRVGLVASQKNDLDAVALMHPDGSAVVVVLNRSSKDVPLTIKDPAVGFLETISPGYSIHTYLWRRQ

[12] = target: Sphingosine 1-phosphate receptor 3 (Homo sapiens, UniProt Q99500); experiment: Dose response cell-based high throughput screening assay for antagonists of the Sphingosine 1-Phosphate Receptor 3 (S1P3). [Related pubchem assays: 1429, 485 ]; type: functional
Sequence of Sphingosine 1-phosphate receptor 3 (Q99500 whole entry): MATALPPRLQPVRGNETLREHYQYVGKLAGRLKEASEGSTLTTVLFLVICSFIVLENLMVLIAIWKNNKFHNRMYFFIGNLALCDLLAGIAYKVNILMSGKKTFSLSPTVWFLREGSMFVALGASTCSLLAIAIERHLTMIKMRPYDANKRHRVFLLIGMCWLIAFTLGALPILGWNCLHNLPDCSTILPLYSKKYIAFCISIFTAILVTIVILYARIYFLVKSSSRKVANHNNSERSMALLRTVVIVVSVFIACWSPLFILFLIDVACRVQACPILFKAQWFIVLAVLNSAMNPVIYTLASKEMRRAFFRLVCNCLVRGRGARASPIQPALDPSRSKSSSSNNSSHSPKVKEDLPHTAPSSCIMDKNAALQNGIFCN

[13] = target: 5-hydroxytryptamine receptor 1E (Homo sapiens, UniProt P28566); experiment: Counterscreen assay for S1P3 antagonists: Dose response cell-based high throughput screening assay to identify antagonists of the 5-Hydroxytryptamine Receptor Subtype 1E (5HT1E). [Related pubchem assays: 1429, 485 ]; type: functional
Sequence of 5-hydroxytryptamine receptor 1E (P28566 whole entry): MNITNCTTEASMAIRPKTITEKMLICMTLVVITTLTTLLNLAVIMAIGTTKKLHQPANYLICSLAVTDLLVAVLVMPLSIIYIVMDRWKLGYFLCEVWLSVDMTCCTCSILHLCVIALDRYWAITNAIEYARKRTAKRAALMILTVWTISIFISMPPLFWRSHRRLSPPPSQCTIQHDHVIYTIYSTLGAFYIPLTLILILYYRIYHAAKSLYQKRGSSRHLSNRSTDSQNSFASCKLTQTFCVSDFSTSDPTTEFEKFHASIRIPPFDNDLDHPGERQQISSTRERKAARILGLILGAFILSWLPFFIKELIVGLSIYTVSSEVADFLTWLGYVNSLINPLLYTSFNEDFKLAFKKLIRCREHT

[14] = target: T2, Heat shock factor protein 1 (Mus musculus, UniProt P38532); experiment: decrease of HSF1-responsive luciferase luminescence – cell-based, NIH3T3, dose retest, confirmation (AID 2382); type: functional;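 also: NIH3T3 fibroblasts with HSF1-driven luciferase reporter stressed by proteasome inhibitor MG132; luminescence from HSF1-driven luciferase expression after 8 hours of MG132 stress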
T2 sequence (P38532 whole entry): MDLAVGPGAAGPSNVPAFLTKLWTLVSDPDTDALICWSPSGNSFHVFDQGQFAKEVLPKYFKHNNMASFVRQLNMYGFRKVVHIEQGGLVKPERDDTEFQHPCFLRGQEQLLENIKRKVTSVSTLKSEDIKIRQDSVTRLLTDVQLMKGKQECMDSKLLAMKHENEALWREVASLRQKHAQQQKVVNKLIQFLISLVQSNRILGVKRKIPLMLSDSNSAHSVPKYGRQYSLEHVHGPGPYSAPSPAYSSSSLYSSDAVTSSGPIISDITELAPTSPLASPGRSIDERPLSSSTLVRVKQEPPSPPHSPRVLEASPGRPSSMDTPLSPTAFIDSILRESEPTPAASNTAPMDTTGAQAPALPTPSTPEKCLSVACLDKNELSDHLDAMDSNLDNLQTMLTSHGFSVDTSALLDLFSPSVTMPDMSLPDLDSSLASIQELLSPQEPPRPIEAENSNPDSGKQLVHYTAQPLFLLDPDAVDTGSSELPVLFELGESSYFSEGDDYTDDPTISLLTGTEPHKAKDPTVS

[15] = antiviral protection against BTV-induced cell death – arbovirus, BSR cells, confirmation (AID 1250); type: functional;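 also: protection from viral cytopathic effect measured as cell viability by ATP luminescence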
[16] = target: T3, Mannose-6-phosphate isomerase (Homo sapiens, UniProt P34949); experiment: MPI enzyme activity inhibition – biochemical, fluorescence intensity, coupled assay, primary screen (AID 1209)
T3 sequence (P34949 whole entry): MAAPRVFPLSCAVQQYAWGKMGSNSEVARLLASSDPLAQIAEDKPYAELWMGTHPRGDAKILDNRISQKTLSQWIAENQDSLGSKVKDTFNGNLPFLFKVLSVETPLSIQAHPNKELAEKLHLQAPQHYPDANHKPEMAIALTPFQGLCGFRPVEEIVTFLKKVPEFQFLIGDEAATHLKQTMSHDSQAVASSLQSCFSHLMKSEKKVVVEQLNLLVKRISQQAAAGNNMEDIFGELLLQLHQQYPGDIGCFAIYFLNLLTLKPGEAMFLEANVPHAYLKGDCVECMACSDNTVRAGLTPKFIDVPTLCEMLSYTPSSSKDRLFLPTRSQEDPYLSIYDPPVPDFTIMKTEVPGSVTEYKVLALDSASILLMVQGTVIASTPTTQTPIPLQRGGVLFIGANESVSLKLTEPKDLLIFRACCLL

[17] = target: T4, Replicative DNA helicase DnaB (Mycobacterium tuberculosis, UniProt P9WMR3); experiment: DnaB intein splicing inhibitors, dose response, biochemical, cell-free fluorescence (AID 449749); type: functional
T4 sequence (P9WMR3 whole entry): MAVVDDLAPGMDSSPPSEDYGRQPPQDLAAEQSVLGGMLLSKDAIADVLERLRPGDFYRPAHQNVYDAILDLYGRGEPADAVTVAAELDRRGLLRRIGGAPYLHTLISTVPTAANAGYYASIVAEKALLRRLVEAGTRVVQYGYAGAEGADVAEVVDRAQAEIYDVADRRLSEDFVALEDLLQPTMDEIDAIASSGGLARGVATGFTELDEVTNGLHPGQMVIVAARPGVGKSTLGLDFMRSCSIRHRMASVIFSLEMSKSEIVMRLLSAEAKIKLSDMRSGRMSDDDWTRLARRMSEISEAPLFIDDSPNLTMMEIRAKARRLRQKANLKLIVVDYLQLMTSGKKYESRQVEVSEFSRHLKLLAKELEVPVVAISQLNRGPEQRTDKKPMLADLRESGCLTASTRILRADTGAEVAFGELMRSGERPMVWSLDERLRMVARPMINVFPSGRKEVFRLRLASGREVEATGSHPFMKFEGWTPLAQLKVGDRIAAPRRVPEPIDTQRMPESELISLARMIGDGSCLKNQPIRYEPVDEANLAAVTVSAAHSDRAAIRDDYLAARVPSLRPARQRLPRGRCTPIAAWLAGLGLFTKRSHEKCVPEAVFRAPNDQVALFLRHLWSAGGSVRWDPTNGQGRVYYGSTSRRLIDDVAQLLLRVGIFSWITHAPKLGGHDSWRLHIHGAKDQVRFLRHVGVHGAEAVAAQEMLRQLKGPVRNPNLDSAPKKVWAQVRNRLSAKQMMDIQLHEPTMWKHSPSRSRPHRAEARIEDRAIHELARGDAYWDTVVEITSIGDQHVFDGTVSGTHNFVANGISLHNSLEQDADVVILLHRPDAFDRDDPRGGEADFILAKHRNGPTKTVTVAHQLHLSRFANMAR

[18] = target: T3, Mannose-6-phosphate isomerase; experiment: MPI inhibition at elevated mannose 6-phosphate – biochemical, fluorescence intensity, high mannose 6-phosphate, primary screen (AID 1220)
[19] = THP-1 cell cytotoxicity, dose response, cytotoxicity control for non-replicating M. tuberculosis project (AID 489025); type: functional
[20] = target: T5, Protein RecA (Mycobacterium tuberculosis, UniProt P9WHJ3); experiment: Fluorescence Cell-Free Homogeneous Dose Retest to Identify Inhibitors of RecA-Intein Splicing Activity. [Related pubchem assays (depositor defined):AID2097, AID2223, AID489010, AID492950]; type: functional
T5 sequence (P9WHJ3 whole entry): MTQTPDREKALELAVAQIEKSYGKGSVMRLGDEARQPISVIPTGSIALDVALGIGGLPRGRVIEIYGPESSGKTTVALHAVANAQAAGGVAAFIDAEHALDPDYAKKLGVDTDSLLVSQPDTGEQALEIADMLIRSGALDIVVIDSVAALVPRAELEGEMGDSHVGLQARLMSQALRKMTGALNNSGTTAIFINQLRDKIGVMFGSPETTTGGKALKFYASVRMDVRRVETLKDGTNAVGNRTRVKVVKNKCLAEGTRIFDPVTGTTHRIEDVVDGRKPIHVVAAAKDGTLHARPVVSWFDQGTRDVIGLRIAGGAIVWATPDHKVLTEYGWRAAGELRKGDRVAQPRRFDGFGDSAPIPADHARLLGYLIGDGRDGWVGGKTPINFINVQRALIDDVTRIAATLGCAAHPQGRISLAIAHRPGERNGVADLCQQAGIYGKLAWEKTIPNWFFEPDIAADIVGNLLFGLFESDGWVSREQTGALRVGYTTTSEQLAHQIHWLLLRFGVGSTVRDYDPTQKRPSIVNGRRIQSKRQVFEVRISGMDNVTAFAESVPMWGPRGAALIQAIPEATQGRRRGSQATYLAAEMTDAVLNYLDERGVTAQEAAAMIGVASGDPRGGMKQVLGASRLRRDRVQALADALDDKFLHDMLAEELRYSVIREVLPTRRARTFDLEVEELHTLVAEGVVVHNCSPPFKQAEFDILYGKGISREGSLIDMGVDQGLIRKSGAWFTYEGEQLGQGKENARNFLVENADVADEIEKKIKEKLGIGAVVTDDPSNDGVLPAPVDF

[21] = potency of ADAM10 substrate cleavage blockers – biochemical, QFRET, dose response (AID 743254);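 also: ADAM10 enzyme with the DM2 quenched FRET peptide as substrate; EDANS fluorescence gain as the protease cuts the substrate; inhibitor potency against ADAM10 proteolytic activity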
[22] = cells; type: functional
[23] = A High Throughput Confirmatory Assay used to Identify Novel Compounds that Inhibit Mycobacterium Tuberculosis in the absence of Glycerol.; type: functional
[24] = target: Disintegrin and metalloproteinase domain-containing protein 17 (Homo sapiens, UniProt P78536); experiment: inhibition of ADAM17 substrate cleavage – biochemical, quenched FRET substrate, counter-screen for ADAM10 exosite inhibitor project, dose response (AID 743253)
Sequence of Disintegrin and metalloproteinase domain-containing protein 17 (P78536 whole entry, the tested form may be a part): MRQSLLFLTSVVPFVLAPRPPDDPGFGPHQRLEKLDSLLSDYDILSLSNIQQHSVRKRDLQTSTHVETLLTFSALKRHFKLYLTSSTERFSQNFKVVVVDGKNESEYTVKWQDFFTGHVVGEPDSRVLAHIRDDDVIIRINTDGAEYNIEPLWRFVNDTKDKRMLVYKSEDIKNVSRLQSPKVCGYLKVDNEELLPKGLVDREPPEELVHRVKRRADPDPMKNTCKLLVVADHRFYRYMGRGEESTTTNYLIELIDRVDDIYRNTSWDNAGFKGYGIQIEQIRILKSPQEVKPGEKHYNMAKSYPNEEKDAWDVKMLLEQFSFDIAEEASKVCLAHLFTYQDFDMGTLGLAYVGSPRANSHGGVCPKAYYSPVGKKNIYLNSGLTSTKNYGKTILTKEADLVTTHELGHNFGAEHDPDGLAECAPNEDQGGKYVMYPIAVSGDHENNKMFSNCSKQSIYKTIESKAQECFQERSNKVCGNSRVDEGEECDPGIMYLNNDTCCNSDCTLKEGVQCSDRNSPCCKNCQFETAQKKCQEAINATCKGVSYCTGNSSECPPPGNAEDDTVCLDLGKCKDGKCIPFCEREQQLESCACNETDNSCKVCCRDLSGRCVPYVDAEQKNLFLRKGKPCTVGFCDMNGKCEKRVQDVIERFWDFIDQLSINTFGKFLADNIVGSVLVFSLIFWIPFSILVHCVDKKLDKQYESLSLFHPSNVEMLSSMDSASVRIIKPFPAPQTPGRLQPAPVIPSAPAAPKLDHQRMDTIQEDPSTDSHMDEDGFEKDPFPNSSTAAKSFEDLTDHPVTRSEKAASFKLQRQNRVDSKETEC

Sequence of Melanin-concentrating hormone receptor 1 (Q99705 whole entry): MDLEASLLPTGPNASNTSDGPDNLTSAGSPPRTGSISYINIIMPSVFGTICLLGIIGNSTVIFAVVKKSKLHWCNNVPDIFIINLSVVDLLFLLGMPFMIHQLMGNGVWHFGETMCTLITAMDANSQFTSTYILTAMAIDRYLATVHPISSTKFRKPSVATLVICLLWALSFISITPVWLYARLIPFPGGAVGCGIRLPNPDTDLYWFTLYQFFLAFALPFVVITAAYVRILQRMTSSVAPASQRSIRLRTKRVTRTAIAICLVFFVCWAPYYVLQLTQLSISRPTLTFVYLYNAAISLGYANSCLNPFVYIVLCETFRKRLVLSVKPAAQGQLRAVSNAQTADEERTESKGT

With `CCOC(=O)c1c[nH]nc1N=C(S)Nc1ccc(OC)cc1` the IC50 [1] was > 14.6 µM (not active) and the IC50 [2] was > 43.8 µM (not active).

In the case of `COc1ccc(C(C[N+](=O)[O-])c2c(-c3ccccc3)cc3ccccn23)c(OC)c1` (centres undefined), the IC50 [3] was 36.3 µM (active), the CC50 [4] was 20.3 µM (active) and the CC50 [5] was > 50 µM (active).

In the case of `Cc1cccc(N=C(S)Nn2cnnc2)c1C`, the IC50 [6] was 1.9 µM (active) and the IC50 [7] was > 59.6 µM (not active).

With `COc1ccc(COC(=O)c2ccc3c(=O)n4c(nc3c2)CCC4)cc1F` the EC50 [8] was > 35.4 µM (not active), the EC50 [9] was > 35.4 µM (not active) and the EC50 [10] was > 35.4 µM (not active).

With `COC(=O)c1cn(-c2ccccc2)nc1-c1cccnc1` the EC50 [11] was > 50 µM (not active).

With `C=CCN1CCN(C(c2ccc(Cl)cc2)c2nnnn2CCc2ccc(OC)c(OC)c2)CC1` (centres undefined) the IC50 [12] was > 50 µM (not active) and the IC50 [13] was > 50 µM (not active).

In the case of `COc1ccc2ccccc2c1/C=N/N1C(=O)CSC1=S`, the EC50 [14] was > 195 µM (not active) and the IC50 [15] was 21.1 µM (active).

In the case of `O=Cc1ccnc(-c2ccc(OC(=O)c3ccco3)cc2)n1`, the IC50 [16] was 7.4 µM (active), the AC50 [17] was 5.71 µM (active) and the IC50 [18] was 6.56 µM (active). The CC50 [19] was > 40 µM (active) and the EC50 [20] was 16.8 µM (active).

With `Cc1cccc(OCC(=O)NNC(=O)c2cc3ccccc3oc2=O)c1` the IC50 [21] was > 69.5 µM (inactive), the IC50 [22] was 19.4 µM (active) and the IC50 [23] was > 100 µM (active). For the same molecule, the IC50 [24] was > 69.5 µM (inactive).
